What is called EC50 is the concentration giving half of the maximal effect.

Here are results for 13 compounds from patent US8247573B2, “Substituted N-(2-mercaptopyridin-3-yl)amides as KCNQ2/3 modulators” (Gruenenthal GmbH, priority 2009, dated 2012).

In the assay the target is T1, KCNQ2/3 channels (Homo sapiens, UniProt O43525+O43526).
T1 construct: expressed in transfected cells; host or cells: CHO-K1
Briefly: Fluorescence assay using a voltage-sensitive dye (fluorimetry). In kind it is cell-based. The settings on record: CHO-K1 cells expressing KCNQ2/3; for EC50: agonistic activity; for Emax: read-out: Fluorimetry % efficacy (I/EC50, retigabine = 100%). The protocol: Pharmacological Experiments Fluorescence Assay Using a Voltage-Sensitive Dye
Human CHO-K1 cells expressing KCNQ2/3 channels are cultivated adherently at 37° C., 5% CO2 and 95% humidity in cell culture bottles (e.g. 80 cm^2 TC flasks, Nunc) with DMEM-high glucose (Sigma Aldrich, D7777) including 10% FCS (PAN Biotech, e.g. 3302-P270521) or alternatively MEM Alpha Medium (1×, liquid, Invitrogen, #22571), 10% foetal calf serum (FCS) (Invitrogen, #10270-106, heat-inactivated) and the necessary selection antibiotics.
Before being seeded out for the measurements, the cells are washed with a 1×DPBS buffer without Ca^2+/Mg^2+ (e.g. Invitrogen, #14190-094) and detached from the bottom of the culture vessel by means of Accutase (PAA Laboratories, #L11-007) (incubation with Accutase for 15 min at 37° C.). The cell count then present is determined using a CASY™ cell counter (TCC model, Schärfe System) in order subsequently to apply 20,000 to 30,000 cells/well/100 μl of the described nutrient medium, depending on density optimisation for the individual cell line, to 96-well measuring plates of the Corning™ CellBIND™ type (flat clear-bottom black polystyrene microplates, #3340). Incubation is then carried out for one hour at room temperature, without gassing or adjusting the humidity, followed by incubation for 24 hours at 37° C., 5% CO2 and 95% humidity.
The voltage-sensitive fluorescent dye from the Membrane Potential Assay Kit (Red™ bulk format part R8123 for FLIPR, MDS Analytical Technologies™) is prepared by dissolving the contents of a vessel of Membrane Potential Assay Kit Red Component A in 200 ml of extracellular buffer (ES buffer, 120 mM NaCl, 1 mM KCl, 10 mM HEPES, 2 mM CaCl2, 2 mM MgCl2, 10 mM glucose; pH 7.4). After removal of the nutrient medium, the cells are washed with 200 μl of ES buffer, then covered with a layer of 100 μl of the dye solution prepared above and incubated for 45 min at room temperature with exclusion of light.
The fluorescence measurements are carried out with a BMG Labtech FLUOstar™, BMG Labtech NOVOstar™ or BMG Labtech POLARstar™ instrument (525 nm excitation, 560 nm emission, bottom-read mode). After incubation of the dye, 50 μl of the substances to be tested in the desired concentrations, or 50 μl of ES buffer for control purposes, are introduced into separate cavities of the measuring plate and incubated for 30 min at room temperature whilst being shielded from light. The fluorescence intensity of the dye is then measured for 5 min and the fluorescence value F1 of each well is thus determined at a given, constant time. 15 μl of a […] KCl solution […] are then added to each well. The change in fluorescence is subsequently measured until all relevant measured values have been obtained (mainly […]). At a given time after KCl application, a fluorescence value F2 is determined, in this case at the time of the fluorescence peak.
For calculation, the fluorescence intensity F2 is compared with the fluorescence intensity F1, and the agonistic activity of the target compound on the potassium channel is determined therefrom. F2 and F1 are calculated as follows: […]
In order to determine whether a substance has an agonistic activity,
[formula] is determined by adding to the reaction batch only the buffer solution instead of the substance to be tested, determining the value F1K of the fluorescence intensity, adding the potassium ions as described above and measuring a value F2K of the fluorescence intensity. Then F2K and F1K are calculated as follows: […]
A substance has an agonistic activity on the potassium channel if
Independently of the comparison of
[formula] it is also possible to conclude that a target compound has an agonistic activity if an increase in
[formula] is to be observed as the dosage of the target compound increases.
Calculations of EC50 values are carried out with the aid of Prism v4.0 software (GraphPad Softwares™).

Where [1] appears, read: relative to retigabine = 100%, negative values = antagonistic.

On to `O=C(Cc1cccs1)Nc1cccnc1SCCS(=O)(=O)c1ccccc1` [Example 7, N-[2-[2-(Benzenesulfonyl)-ethylsulfanyl]-pyridin-3-yl]-2-thiophen-2-yl acetamide], for which a half-maximal effect (EC50) was put at 424 nM. Also, the Emax under setting [1] was determined as 125%.
`O=C(CCC1CCCC1)Nc1cccnc1SCCS(=O)(=O)c1cccc(C(F)(F)F)c1` [Example 28, 3-Cyclopentyl-N-[2-[2-[[3-(trifluoromethyl)phenyl]sulfonyl]-ethylsulfanyl]-pyridin-3-yl]propionamide] came in with a concentration for a half-maximal effect (EC50) of 277 nM. Besides, the Emax under setting [1] amounted to 152%.
As for `O=C(/C=C/c1ccc(F)cc1)Nc1cccnc1SCCS(=O)(=O)c1cccc(C(F)(F)F)c1` [Example 31, (E)-3-(4-Fluorophenyl)-N-[2-[2-[[3-(trifluoromethyl)phenyl]sulfonyl]-ethylsulfanyl]-pyridin-3-yl]acrylamide], the 50% effective concentration (EC50) amounted to 841 nM. Besides, the Emax under setting [1] is 109%.
`O=C(Cc1cc2ccccc2s1)Nc1cccnc1SCCS(=O)(=O)c1cccc(C(F)(F)F)c1` [Example 59, 2-(Benzo[b]thiophen-2-yl)-N-[2-[2-[[3-(trifluoromethyl)phenyl]sulfonyl]-ethylsulfanyl]-pyridin-3-yl]acetamide] showed an EC50 of 925 nM. For the same compound, under setting [1], the Emax came out at 139%.
Regarding `O=C(Nc1cccnc1SCCCc1ccc(F)cc1)c1ccc(F)c(F)c1` [Example 65, 3,4-Difluoro-N-[2-[3-(4-fluorophenyl)-propylsulfanyl]-pyridin-3-yl]benzamide], the concentration for a half-maximal effect (EC50) is 480 nM. Also, the Emax under setting [1] was 148%.
On the same counts, the results for `O=C(CC1CCCCCC1)Nc1cccnc1SCCS(=O)(=O)c1ccc(F)cc1` [Example 67, 2-Cycloheptyl-N-[2-[2-[(4-fluorophenyl)sulfonyl]-ethylsulfanyl]-pyridin-3-yl]acetamide] are 18 nM and 114%.
Regarding `O=C(Cc1ccncc1)Nc1cccnc1SCCS(=O)(=O)c1cccc(C(F)(F)F)c1` [Example 36, 2-Pyridin-4-yl-N-[2-[2-[[3-(trifluoromethyl)phenyl]sulfonyl]-ethylsulfanyl]-pyridin-3-yl]acetamide], the Emax under setting [1] is 38%.
In the case of `O=C(Cc1cccs1)Nc1cccnc1SCCOc1ccccc1` [Example 45, N-[2-(2-Phenoxy-ethylsulfanyl)-pyridin-3-yl]-2-thiophen-2-yl acetamide], the “Fluorimetry % efficacy (I/EC50, retigabine = 100%)” value under setting [1] came out at 58%.
On to `O=C(CCC1CCCCCC1)Nc1cccnc1SCCS(=O)(=O)c1cccc(C(F)(F)F)c1` [Example 58, 3-Cycloheptyl-N-[2-[2-[[3-(trifluoromethyl)phenyl]sulfonyl]-ethylsulfanyl]-pyridin-3-yl]propionamide], for which the midpoint of the response, the EC50, lay at 47.5 nM. Besides, under setting [1], the Emax was determined as 167%.
As for `CC(C)(C)CC(=O)Nc1cccnc1SCCOc1ccc(F)cc1` [Example 63, N-[2-[2-(4-Fluorophenoxy)-ethylsulfanyl]-pyridin-3-yl]-3,3-dimethyl butyramide], the EC50 was determined as 546 nM. Also, the Emax under setting [1] was determined as 119%.
The matching figures for `O=C(Nc1cccnc1SCCOc1ccc(F)cc1)c1ccc(F)c(F)c1` [Example 64, 3,4-Difluoro-N-[2-[2-(4-fluorophenoxy)-ethylsulfanyl]-pyridin-3-yl]benzamide]: 200 nM and 49%.
Consider `O=C(Nc1cccnc1SCCS(=O)(=O)c1ccccc1)c1ccccc1` [Example 4, N-[2-[2-(Benzenesulfonyl)-ethylsulfanyl]-pyridin-3-yl]benzamide], for which the Emax under setting [1] came out at 55%.
As to `O=C(Cc1ccccc1O)Nc1cccnc1SCCS(=O)(=O)c1cccc(C(F)(F)F)c1` [Example 12, 2-(2-Hydroxyphenyl)-N-[2-[2-[[3-(trifluoromethyl)phenyl]sulfonyl]-ethylsulfanyl]-pyridin-3-yl]acetamide], the half-maximal effective concentration (EC50) is 168 nM. The Emax under setting [1] worked out at 141%.
